13 compounds from US7534421B2, “s-Triazine compounds bearing at least one para-aminobenzalmalonic salt substituent and photoprotective cosmetic compositions comprised thereof” (L'Oreal, priority 2003, dated 2009) can be followed below.

Where a name gives a salt, the structure may show the parent alone.

One series in a line: UV absorption spectrum (λmax, εmax, E1%) of the s-triazine UV screens in solution. Format: physicochemical. To be noted: UV (DMSO/ethanol).
Take `O=C(O)C(=Cc1ccc(Nc2nc(O)nc(Nc3ccc(C=C(C(=O)O)C(=O)O)cc3)n2)cc1)C(=O)O` [2-(4-{4-[4-(2,2-dicarboxyvinyl)phenylamino]-6-hydroxy[1,3,5]triazin-2-ylamino}benzylidene)malonic acid]: the E1% entry was “E1% = 691”, the εmax entry is on record as “εmax = 35 070” and the λmax result is “λmax = 336 nm”.

Still in this series, the particulars now being: UV (NaOH 0.1 N).
As for `O=C(O)C(=Cc1ccc(Nc2nc(Cl)nc(Nc3ccc(C=C(C(=O)O)C(=O)O)cc3)n2)cc1)C(=O)O` [2-(4-{4-chloro-6-[4-(2,2-dicarboxy-vinyl)phenylamino][1,3,5]triazin-2-ylamino}benzylidene)malonic acid], the E1% entry is recorded as “E1% = 932”, the εmax entry is “εmax = 64 960” and the λmax result was “λmax = 320 nm”.
Take `O=C(O)C(=Cc1ccc(Nc2nc(O)nc(Nc3ccc(C=C(C(=O)O)C(=O)O)cc3)n2)cc1)C(=O)O` [Example 5, tetrasodium salt of 2-(4-{4-[4-(2,2-dicarboxyvinyl)phenylamino]-6-hydroxy[1,3,5]triazin-2-ylamino}benzylidene)malonic acid]: the E1% result is given as “E1% = 852”, the εmax entry is recorded as “εmax = 50 700” and the λmax entry is “λmax = 322 nm”.

Still in this series, the particulars now being: UV (ethanol).
On to `O=C(O)C(=Cc1ccc(Nc2nc(Nc3ccc(C=C(C(=O)O)C(=O)O)cc3)nc(Nc3ccc(C=C(C(=O)O)C(=O)O)cc3)n2)cc1)C(=O)O` [acid derivative of Example 1, 2-(4-[4,6-bis[4-(2,2-dicarboxyvinyl)phenylamino][1,3,5]triazin-2-ylamino}benzylidene)malonic acid], for which the E1% result is on record as “E1% = 930”, the εmax entry was “εmax = 64 820” and the λmax entry is given as “λmax = 348 nm”.

The series is the same for the next values; noted with them: UV (water).
Regarding `O=C(O)C(=Cc1ccc(Nc2nc(Nc3ccc(C=C(C(=O)O)C(=O)O)cc3)nc(Nc3ccc(C=C(C(=O)O)C(=O)O)cc3)n2)cc1)C(=O)O` [Example 1, hexasodium salt of 2-(4-{4,6-bis[4-(2,2-dicarboxyvinyl)phenylamino][1,3,5]triazin-2-ylamino}benzylidene)malonic acid], the E1% entry is “E1% = 1 043”, the εmax result is reported as “εmax = 86 428” and the λmax entry is recorded as “λmax = 323 nm”.
Taken in the same sequence, the figures for `O=C(O)C(=Cc1ccc(Nc2nc(Nc3ccc(C=C(C(=O)O)C(=O)O)cc3)nc(Nc3ccc(C=C(C(=O)O)C(=O)O)cc3)n2)cc1)C(=O)O` [Example 2, hexasodium salt of 2-(4-{4,6-bis[4-(2,2-dicarboxyvinyl)phenylamino][1,3,5]triazin-2-ylamino}benzylidene)malonic acid] were “E1% = 1 060”, “εmax = 87 820” and “λmax = 323 nm”.
Taken in the same sequence, the figures for `CC12CCC(/C(=C\c3ccc(Nc4nc(Nc5ccc(C=C(C(=O)O)C(=O)O)cc5)nc(Nc5ccc(/C=C6/C(=O)C7(C)CCC6C7(C)C)cc5)n4)cc3)C1=O)C2(C)C` [Example 11, disodium salt of 2-(4-{[4,6-bis({4-(4,7,7-trimethyl-3-oxobicyclo[2.2.1]hept-2-ylidene)methyl]phenyl}amino)[1,3,5]triazin-2-ylamino}benzylidene)malonic acid] were “E1% = 1 238”, “εmax = 98 170” and “λmax = 353 nm”.
On to `COc1ccc(-c2nc(Nc3ccc(C=C(C(=O)O)C(=O)O)cc3)nc(Nc3ccc(C=C(C(=O)O)C(=O)O)cc3)n2)cc1` [Example 6, tetrasodium salt of 2-{4-[4-[4-(2,2-dicarboxyvinyl)phenylamino]-6-(4-methoxyphenyl)[1,3,5]triazin-2-ylamino]benzylidene}malonic acid], for which the E1% result was “E1% = 768”, the εmax result is listed as “εmax = 45 900” and the λmax result is “λmax = 318 nm”.
Regarding `O=C(O)C(=Cc1ccc(Nc2nc(Nc3ccc(C=C(C(=O)O)C(=O)O)cc3)nc(Nc3ccc(C=C(C(=O)O)C(=O)O)cc3)n2)cc1)C(=O)O` [Example 4, hexatriethanolamine salt of 2-(4-{4,6-bis[4-(2,2-dicarboxyvinyl)phenylamino][1,3,5]triazin-2-ylamino}benzylidene)malonic acid], the E1% entry is given as “E1% = 523”, the εmax result was “εmax = 83 250” and the λmax entry is “λmax = 322 nm”.
Turning to `CC12CCC(/C(=C\c3ccc(Nc4nc(Nc5ccc(C=C(C(=O)O)C(=O)O)cc5)nc(Nc5ccc(C=C(C(=O)O)C(=O)O)cc5)n4)cc3)C1=O)C2(C)C` (stereo not drawn) [Example 10, tetrasodium salt of 2-(4-{4-[4-(2-dicarboxyvinyl)phenylamino]-6-[4-(4,7,7-trimethyl-3-oxobicyclo[2.2.1]hept-2-ylidenemethyl)phenylamino][1,3,5]triazin-2-ylamino}benzylidene)malonic acid], the E1% result is “E1% = 963”, the εmax result is recorded as “εmax = 69 210” and the λmax result is “λmax = 329 nm”.
As to `O=C(O)C(=Cc1ccc(Nc2nc(Nc3ccc(C=C(C(=O)O)C(=O)O)cc3)nc(Nc3ccc(C=C(C(=O)O)C(=O)O)cc3)n2)cc1)C(=O)O` [Example 3, hexapotassium salt of 2-(4-{4,6-bis[4-(2,2-dicarboxyvinyl)phenylamino][1,3,5]triazin-2-ylamino}benzylidene)malonic acid], the E1% entry was “E1% = 720”, the εmax entry was “εmax = 66 600” and the λmax entry is on record as “λmax = 324 nm”.
On to `O=C(O)/C=C/c1ccc(Nc2nc(Nc3ccc(C=C(C(=O)O)C(=O)O)cc3)nc(Nc3ccc(C=C(C(=O)O)C(=O)O)cc3)n2)cc1` [Example 9, pentasodium salt of 2-(4-{4-[4-(2-carboxyvinyl)phenylamino]-6-[4-(2,2-dicarboxy-vinyl)phenylamino][1,3,5]triazin-2-ylamino}benzylidene)malonic acid], for which the E1% entry is “E1% = 1 274”, the εmax entry is on record as “εmax = 83 070” and the λmax result is “λmax = 327 nm”.
For the compound `CCCCOc1nc(Nc2ccc(C=C(C(=O)O)C(=O)O)cc2)nc(Nc2ccc(C=C(C(=O)O)C(=O)O)cc2)n1` [Example 7, tetrasodium salt of 2-(4-{4-butoxy-6-[4-(2,2-dicarboxyvinyl)phenylamino][1,3,5]triazin-2-ylamino}benzylidene)malonic acid], the E1% entry is recorded as “E1% = 922”, the εmax result is “εmax = 51 960” and the λmax entry is “λmax = 317 nm”.
